Test results published in ChEMBL document CHEMBL1201862, “PubChem BioAssay data set” (2004).
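1) Cells in 96-well plates. 2) Compound, 48 h, 5 concentrations. 3) Linear interpolation between surrounding doses. 4) Unreached endpoint = highest concentration. The concentration for 50% growth inhibition is given as GI50.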 Active and inactive are the calls of the source. Rule as the data show it: active = GI50 up to about 1.1 µM and inactive = higher.

What was measured:
Assay in all cases: NCI-60 cell line screen, 48 h
SNB-75 = system: SNB-75
NCI-H23 = system: NCI-H23
HT-29 = system: HT-29
MOLT-4 = system: MOLT-4
UACC-62 = system: UACC-62
A498 = system: A498
HCC 2998 = system: HCC 2998
IGROV-1 = system: IGROV-1
HOP-92 = system: HOP-92
RXF 393 = system: RXF 393
SF-539 = system: SF-539
EKVX = system: EKVX
HOP-62 = system: HOP-62
LOX IMVI = system: LOX IMVI
KM12 = system: KM12
SR = system: SR
SK-MEL-2 = system: SK-MEL-2
SW-620 = system: SW-620
CCRF-CEM = system: CCRF-CEM
DMS-114 = system: DMS-114
NCI-H522 = system: NCI-H522
SF-268 = system: SF-268
LXFL 529 = system: LXFL 529
U-251 = system: U-251
RPMI-8226 = system: RPMI-8226
UACC-257 = system: UACC-257
K562 = system: K562
KM-20L2 = system: KM-20L2
NCI-H226 = system: NCI-H226
HCT-116 = system: HCT-116
COLO 205 = system: COLO 205
SK-MEL-5 = system: SK-MEL-5
SN12C = system: SN12C
SF-295 = system: SF-295
HL-60 = system: HL-60
OVCAR-3 = system: OVCAR-3
DLD-1 = system: DLD-1
SNB-19 = system: SNB-19
HCT-15 = system: HCT-15
OVCAR-5 = system: OVCAR-5
A549 = system: A549
ACHN = system: ACHN
UO-31 = system: UO-31
M19-MEL = system: M19-MEL
OVCAR-8 = system: OVCAR-8
M14 = system: M14
NCI-H460 = system: NCI-H460
Malme-3M = system: Malme-3M
786-0 = system: 786-0
SK-MEL-28 = system: SK-MEL-28
CAKI-1 = system: CAKI-1
SNB-78 = system: SNB-78
DMS-273 = system: DMS-273
OVCAR-4 = system: OVCAR-4
SK-OV-3 = system: SK-OV-3
TK-10 = system: TK-10

CC(=O)[O-].[O-]c1c(Cl)cc(Cl)cc1/C=N/Nc1ccccn1.[Zn+2]
GI50 (SNB-75): 4.99 µM (inactive)
GI50 (NCI-H23): 0.32 µM (active)
GI50 (HT-29): 6.82 µM (inactive)
GI50 (MOLT-4): 0.183 µM (active)
GI50 (UACC-62): 0.435 µM (active)
GI50 (A498): > 100 µM (inactive)
GI50 (HCC 2998): 9.86 µM (inactive)
GI50 (IGROV-1): 1.96 µM (inactive)
GI50 (HOP-92): 0.316 µM (active)
GI50 (RXF 393): 0.923 µM (active)
GI50 (SF-539): 1.26 µM (inactive)
GI50 (EKVX): 2.18 µM (inactive)
GI50 (HOP-62): 1.81 µM (inactive)
GI50 (LOX IMVI): 0.798 µM (active)
GI50 (KM12): 6.3 µM (inactive)
GI50 (SR): 0.16 µM (active)
GI50 (SK-MEL-2): 0.0601 µM (active)
GI50 (SW-620): 1.74 µM (inactive)
GI50 (CCRF-CEM): 0.244 µM (active)
GI50 (DMS-114): 0.239 µM (active)
GI50 (NCI-H522): 0.41 µM (active)
GI50 (SF-268): 0.94 µM (active)
GI50 (LXFL 529): 0.436 µM (active)
GI50 (U-251): 3.12 µM (inactive)
GI50 (RPMI-8226): 0.325 µM (active)
GI50 (UACC-257): 0.418 µM (active)
GI50 (K562): 0.372 µM (active)
GI50 (KM-20L2): 3.7 µM (inactive)
GI50 (NCI-H226): > 100 µM (inactive)
GI50 (HCT-116): 0.338 µM (active)
GI50 (COLO 205): 15.2 µM (inactive)
GI50 (SK-MEL-5): 0.593 µM (active)
GI50 (SN12C): 5.82 µM (inactive)
GI50 (SF-295): 1.47 µM (inactive)
GI50 (HL-60): 0.234 µM (active)
GI50 (OVCAR-3): 0.268 µM (active)
GI50 (DLD-1): 0.415 µM (active)
GI50 (SNB-19): 3.86 µM (inactive)
GI50 (HCT-15): 0.403 µM
GI50 (OVCAR-5): 2 µM (inactive)
GI50 (A549): 3.65 µM (inactive)
GI50 (ACHN): 0.535 µM (active)
GI50 (UO-31): 0.31 µM (active)
GI50 (M19-MEL): 0.745 µM (active)
GI50 (OVCAR-8): 0.237 µM (active)
GI50 (M14): 0.387 µM (active)
GI50 (NCI-H460): 1.38 µM (inactive)
GI50 (Malme-3M): 0.76 µM (active)
GI50 (786-0): 1.59 µM (inactive)
GI50 (SK-MEL-28): 1.57 µM (inactive)

Cc1[nH]c2ccccc2c1C1CC(=O)NC1=O (configuration not stated)
GI50 (SNB-75): > 100 µM (inactive)
GI50 (NCI-H23): > 100 µM (inactive)
GI50 (HT-29): > 10 µM (inactive)
GI50 (CAKI-1): > 100 µM (inactive)
GI50 (MOLT-4): > 100 µM (inactive)
GI50 (UACC-62): > 100 µM (inactive)
GI50 (A498): > 100 µM (inactive)
GI50 (HCC 2998): > 100 µM (inactive)
GI50 (SNB-78): > 100 µM (inactive)
GI50 (IGROV-1): > 100 µM (inactive)
GI50 (RXF 393): > 100 µM (inactive)
GI50 (SF-539): > 100 µM (inactive)
GI50 (EKVX): > 100 µM (inactive)
GI50 (HOP-62): > 100 µM (inactive)
GI50 (KM12): > 100 µM (inactive)
GI50 (SK-MEL-2): > 100 µM (inactive)
GI50 (SW-620): > 100 µM (inactive)
GI50 (CCRF-CEM): > 100 µM (inactive)
GI50 (DMS-114): > 100 µM (inactive)
GI50 (U-251): > 100 µM (inactive)
GI50 (RPMI-8226): > 100 µM (inactive)
GI50 (UACC-257): > 100 µM (inactive)
GI50 (K562): > 100 µM (inactive)
GI50 (KM-20L2): > 100 µM (inactive)
GI50 (NCI-H226): > 100 µM (inactive)
GI50 (HCT-116): > 100 µM (inactive)
GI50 (SK-MEL-5): > 100 µM (inactive)
GI50 (SF-295): > 100 µM (inactive)
GI50 (HL-60): > 100 µM (inactive)
GI50 (DMS-273): > 100 µM (inactive)
GI50 (OVCAR-3): > 100 µM (inactive)
GI50 (OVCAR-4): > 100 µM (inactive)
GI50 (DLD-1): > 100 µM (inactive)
GI50 (HCT-15): > 100 µM
GI50 (OVCAR-5): > 100 µM (inactive)
GI50 (A549): > 100 µM (inactive)
GI50 (ACHN): > 100 µM (inactive)
GI50 (UO-31): > 100 µM (inactive)
GI50 (M19-MEL): > 100 µM (inactive)
GI50 (OVCAR-8): > 100 µM (inactive)
GI50 (SK-OV-3): > 100 µM (inactive)
GI50 (M14): > 100 µM (inactive)
GI50 (NCI-H460): > 100 µM (inactive)
GI50 (TK-10): > 100 µM (inactive)
GI50 (Malme-3M): > 100 µM (inactive)
GI50 (786-0): > 100 µM (inactive)
GI50 (SK-MEL-28): > 100 µM (inactive)
